From patent US20080145858A1, “DETECTION AND IDENTIFICATION OF TOXICANTS BY MEASUREMENT OF GENE […]” (priority 2003, published 2008)
Marks after values point to notes of the source that are not given here.

System: Xenopus laevis cleavage stage embryos (stage 8)
Test: Xenopus cDNA microarray, differential gene expression after PMA treatment during cleavage stage (Group I)
Type: in vivo
Settings: for Normalization by Landmarks (1.6) / Normalization by all Data Points (1.3) / Ratio of Medians (Cy5/Cy3) First Spot / Ratio of Medians (Cy5/Cy3) Mean / Ratio of Medians (Cy5/Cy3) Second Spot / Normalized by Landmarks (1.59) / Normalized by all Data Points (1.28) / (CY3/CY5) by Landmarks (1.6) / (CY3/CY5) by all Data Points (1.3): PMA 100 ng/ml; for % increase of mRNA expression by Microarray analysis (NF by all data point): Stage 8
Excerpt: Specifically, the method and screen of the present invention function as follows. EST clones produced from Xenopus laevis unfertilized eggs were used in the present study with ˜1,200 EST clones from a 18,500 EST clone set selected for production of a Xenopus cDNA microarray. The Xenopus microarray was used to measure the effect of chemical treatment on Xenopus embryo gene regulation. The chemical treatment was a phorbol ester, PMA. Xenopus eggs were obtained from females induced for ovulation and fertilized in vitro. Control Xenopus laevis embryos were allowed to develop to stage 8 blastula or stage 15 neurula. Treated embryos were exposed to PMA during cleavage stage or during neurulation with end points of blastula (stage 8) or neurula (stage 15). Specifically, PMA 100 ng/ml was added to the incubation media during cleavage stages for evaluation in stage 8 embryo or PMA was added during neural induction for evaluation in stage 15 embryos. RNA extracted from the embryos was used to generate fluorescent cDNA probes for Xenopus microarray analyses to measure differential gene expression with and without the phorbol ester treatment. Analysis was performed using paired RNA samples to compare PMA-treated and untreated embryos: Group I measured the effects of PMA-treatment during the cleavage stage in stage 8 embryos and Group II measured the effects of PMA-treatment during neurulation in stage 15 embryos. Group III measured the change in gene expression between stage 8 and stage 15 embryos.
cDNA fragments were obtained by PCR replication of Xenopus laevis unfertilized egg cDNA inserts, purified, quantitated and loaded onto glass chips by robotics. In addition to the selected ˜1,200 genes, 64 lambda Q gene, an internal control cDNA (Genomic Solutions, Inc., Ann Arbor, Mich.) was loaded on the chip. The insert DNA from ˜1,200 clones were PCR amplified using forward and reverse primers (GF.200 primers, Research Genetics, Huntsville, Ala.). A second PCR was carried out using 1 μl of the primary PCR (20 μl) for template. Excess dNTPs, polymerase and other PCR artifacts were removed from the secondary PCR reactions using Millipore Multiscreen plates (Millipore Corporation, Bedford, Mass.) using the standard protocol. The purity of the PCR products was assessed by electrophoresis and documented using an Alphalmager 1000 Digital Imaging System (Alpha Innotech Corporation, San Leandro, Calif.). The DNA obtained by PCR was quantitated using PicoGreen (Molecular Probes, Eugene, Oreg.). The DNA was denatured and arrayed onto amino-silane coated microscope slides (CMT-GAPS coated slides, Corning, Corning, N.Y.) using a Flexys robotic workstation (Genomic Solutions Inc.). The ˜1,200 PCR products were arrayed in duplicate on each slide and cross-linked. Each gene chip contained duplicate cDNA samples.
Total RNA was prepared from embryos treated in three separate dishes per treatment group that were pooled. Total RNA was isolated from the frog embryos (1,200 embryos for each probe production) using TRIzol extraction (Gibco BRL, Grand Island, N.Y.) and Qiagen RNeasy kits (Qiagen, Valencia, Calif.). The ethanol precipitated RNA was resuspended in RNase-free water, quantitated with RiboGreen (Molecular Probes, Eugene, Oreg.). Total RNA was further purified using oligoTex mRNA maxi kit (Qiagen Co.) with the bound mRNA eluted with minimum volume of elution buffer and precipitated with ethanol. The recovery rate of mRNA by the ethanol precipitation method was ˜70%. Cy3- or Cy5-tagged probes were produced from an mRNA mixture (20 μl) of Xenopus mRNA (5 μg) and lambda Q gene mRNA (3.5 ng) reverse-transcribed with oligo(dT)18-22 primer and dNTPs and the reverse-transcribed cDNA was cross-linked with Cy3 or Cy5 as described in Clontech Atlas™ Glass Fluorescent Labeling kit manual (www.clontech.com). After hydrolysis of the RNA and purification of the probe (Centricon 50, Millipore, Bedford, Mass.), the cDNA in TE buffer was quantitated by absorbance at 260 nm. […]

[1] = cleavage and neurulation stage embryos
[2] = ras-related protein gene, stage 8

SMILES: CCCCCCCCCCCCCC(=O)O[C@@H]1[C@@H](C)[C@@]2(O)[C@@H](C=C(CO)C[C@]3(O)C(=O)C(C)=C[C@@H]23)[C@@H]2C(C)(C)[C@]12OC(C)=O [PMA, phorbol 12-myristate 12-acetate]
- Normalization by Landmarks (1.6) (PBX0143D10 mRNA, stage 8): 0.64
- Normalization by all Data Points (1.3) (PBX0143D10 mRNA, stage 8): 0.40
- Ratio of Medians (Cy5/Cy3) First Spot (PBX0143D10 mRNA, stage 8): 0.22
- Ratio of Medians (Cy5/Cy3) Mean (PBX0143D10 mRNA, stage 8): 0.31 ± 0.11
- Ratio of Medians (Cy5/Cy3) Second Spot (PBX0143D10 mRNA, stage 8): 0.40
- Normalized by Landmarks (1.59) (PBX0143E06 mRNA, stage 8): 3.85
- Normalized by all Data Points (1.28) (PBX0143E06 mRNA, stage 8): 3.10
- Ratio of Medians (Cy5/Cy3) First Spot (PBX0143E06 mRNA, stage 8): 2.92
- Ratio of Medians (Cy5/Cy3) Mean (PBX0143E06 mRNA, stage 8): 2.42 ± 0.50
- Ratio of Medians (Cy5/Cy3) Second Spot (PBX0143E06 mRNA, stage 8): 1.91
- (CY3/CY5) by Landmarks (1.6) (PBX0144A09 mRNA, stage 8): 6.45
- (CY3/CY5) by all Data Points (1.3) (PBX0144A09 mRNA, stage 8): 10.33
- Normalization by Landmarks (1.6) (PBX0144A09 mRNA, stage 8): 0.15
- Normalization by all Data Points (1.3) (PBX0144A09 mRNA, stage 8): 0.10
- Ratio of Medians (Cy5/Cy3) First Spot (PBX0144A09 mRNA, stage 8): 0.06
- Ratio of Medians (Cy5/Cy3) Mean (PBX0144A09 mRNA, stage 8): 0.07 ± 0.02 ^a
- Ratio of Medians (Cy5/Cy3) Second Spot (PBX0144A09 mRNA, stage 8): 0.09
- Normalized by Landmarks (1.59) (PBX0144C12 mRNA, stage 8): 5.55
- Normalized by all Data Points (1.28) (PBX0144C12 mRNA, stage 8): 4.47
- Ratio of Medians (Cy5/Cy3) First Spot (PBX0144C12 mRNA, stage 8): 4.75
- Ratio of Medians (Cy5/Cy3) Mean (PBX0144C12 mRNA, stage 8): 3.49 ± 1.26
- Ratio of Medians (Cy5/Cy3) Second Spot (PBX0144C12 mRNA, stage 8): 2.23
- Normalized by Landmarks (1.59) (PBX0144E04 mRNA, stage 8): 5.45
- Normalized by all Data Points (1.28) (PBX0144E04 mRNA, stage 8): 4.38
- Ratio of Medians (Cy5/Cy3) First Spot (PBX0144E04 mRNA, stage 8): 3.67
- Ratio of Medians (Cy5/Cy3) Mean (PBX0144E04 mRNA, stage 8): 3.42 ± 0.25
- Ratio of Medians (Cy5/Cy3) Second Spot (PBX0144E04 mRNA, stage 8): 3.17
- Normalized by Landmarks (1.59) (PBX0145A06 mRNA, stage 8): 4.55
- Normalized by all Data Points (1.28) (PBX0145A06 mRNA, stage 8): 3.66
- Ratio of Medians (Cy5/Cy3) First Spot (PBX0145A06 mRNA, stage 8): 2.27
- Ratio of Medians (Cy5/Cy3) Mean (PBX0145A06 mRNA, stage 8): 2.86 ± 0.59
- Ratio of Medians (Cy5/Cy3) Second Spot (PBX0145A06 mRNA, stage 8): 3.44
- (CY3/CY5) by Landmarks (1.6) (PBX0145A10 mRNA, stage 8): 1.93
- (CY3/CY5) by all Data Points (1.3) (PBX0145A10 mRNA, stage 8): 3.10
- Normalization by Landmarks (1.6) (PBX0145A10 mRNA, stage 8): 0.52
- Normalization by all Data Points (1.3) (PBX0145A10 mRNA, stage 8): 0.32
- Ratio of Medians (Cy5/Cy3) First Spot (PBX0145A10 mRNA, stage 8): 0.28
- Ratio of Medians (Cy5/Cy3) Mean (PBX0145A10 mRNA, stage 8): 0.25 ± 0.03
- Ratio of Medians (Cy5/Cy3) Second Spot (PBX0145A10 mRNA, stage 8): 0.22
- (CY3/CY5) by Landmarks (1.6) (PBX0145E05 mRNA, stage 8): 5.43
- (CY3/CY5) by all Data Points (1.3) (PBX0145E05 mRNA, stage 8): 8.69
- Normalization by Landmarks (1.6) (PBX0145E05 mRNA, stage 8): 0.18
- Normalization by all Data Points (1.3) (PBX0145E05 mRNA, stage 8): 0.12
- Ratio of Medians (Cy5/Cy3) First Spot (PBX0145E05 mRNA, stage 8): 0.11
- Ratio of Medians (Cy5/Cy3) Mean (PBX0145E05 mRNA, stage 8): 0.09 ± 0.02
- Ratio of Medians (Cy5/Cy3) Second Spot (PBX0145E05 mRNA, stage 8): 0.07
- (CY3/CY5) by Landmarks (1.6) (PBX0145E09 mRNA, stage 8): 2.76
- (CY3/CY5) by all Data Points (1.3) (PBX0145E09 mRNA, stage 8): 4.42
- Normalization by Landmarks (1.6) (PBX0145E09 mRNA, stage 8): 0.36
- Normalization by all Data Points (1.3) (PBX0145E09 mRNA, stage 8): 0.23
- Ratio of Medians (Cy5/Cy3) First Spot (PBX0145E09 mRNA, stage 8): 0.16
- Ratio of Medians (Cy5/Cy3) Mean (PBX0145E09 mRNA, stage 8): 0.17 ± 0.02
- Ratio of Medians (Cy5/Cy3) Second Spot (PBX0145E09 mRNA, stage 8): 0.19
- (CY3/CY5) by Landmarks (1.6) (PBX0145E10 mRNA, stage 8): 2.85
- (CY3/CY5) by all Data Points (1.3) (PBX0145E10 mRNA, stage 8): 4.57
- Normalization by Landmarks (1.6) (PBX0145E10 mRNA, stage 8): 0.35
- Normalization by all Data Points (1.3) (PBX0145E10 mRNA, stage 8): 0.22
- Ratio of Medians (Cy5/Cy3) First Spot (PBX0145E10 mRNA, stage 8): 0.21
- Ratio of Medians (Cy5/Cy3) Mean (PBX0145E10 mRNA, stage 8): 0.17 ± 0.05
- Ratio of Medians (Cy5/Cy3) Second Spot (PBX0145E10 mRNA, stage 8): 0.12
- Normalized by Landmarks (1.59) (PBX0145H10 mRNA, stage 8): 3.78
- Normalized by all Data Points (1.28) (PBX0145H10 mRNA, stage 8): 3.05
- Ratio of Medians (Cy5/Cy3) First Spot (PBX0145H10 mRNA, stage 8): 2.90
- Ratio of Medians (Cy5/Cy3) Mean (PBX0145H10 mRNA, stage 8): 2.38 ± 0.52
- Ratio of Medians (Cy5/Cy3) Second Spot (PBX0145H10 mRNA, stage 8): 1.86
- expression of gene of EST PBX0144A09 [1]: highly down-regulated
- expression of genes of ESTs PBX0134G08, PBX0144C12, PBX0136C09, PBX0134H03, PBX0136F03, PBX0143E06 and PBX0137G06 [1]: highly up-regulated
- up-regulation of the 25 highly up-regulated Xenopus genes (cleavage stage, treated vs untreated embryos, Table 1, Panel A): 3-8 fold
- % increase of mRNA expression by Microarray analysis (NF by all data point) (gene PBX0135A08): 270%^a % of control
- % increase of mRNA expression by Microarray analysis (NF by all data point) (gene PBX013409): 380% of control
- RAB-1A expression ratio [2]: 2.10
- RAB-9 expression [2]: down-regulated
- RAP-1B expression [2]: down-regulated
- Phosphatase 2A regulatory subunit expression (PBX0140D01) (stage 8): 3 fold
